Measurements taken from article PMC4609000 (Chembiochem : a European journal of chemical biology, 2015).
“Also recorded” adds a separate entry of the source. Read-outs that look alike come from different tables or passages of the source. One block for each compound: values may come before it.

Legend:
DXP synthase [1] = conditions: cited from earlier work
DXP synthase [2] = molecular target: T1, DXP synthase (Escherichia coli, UniProt P77488); experiment: DXP synthase inhibition, continuous spectrophotometric IspC-coupled assay; type: biochemical, E. coli; conditions: for mode of inhibition with respect to D-GAP / mode of inhibition with respect to pyruvate: model discrimination analysis (AIC)
T1 sequence (P77488 whole entry): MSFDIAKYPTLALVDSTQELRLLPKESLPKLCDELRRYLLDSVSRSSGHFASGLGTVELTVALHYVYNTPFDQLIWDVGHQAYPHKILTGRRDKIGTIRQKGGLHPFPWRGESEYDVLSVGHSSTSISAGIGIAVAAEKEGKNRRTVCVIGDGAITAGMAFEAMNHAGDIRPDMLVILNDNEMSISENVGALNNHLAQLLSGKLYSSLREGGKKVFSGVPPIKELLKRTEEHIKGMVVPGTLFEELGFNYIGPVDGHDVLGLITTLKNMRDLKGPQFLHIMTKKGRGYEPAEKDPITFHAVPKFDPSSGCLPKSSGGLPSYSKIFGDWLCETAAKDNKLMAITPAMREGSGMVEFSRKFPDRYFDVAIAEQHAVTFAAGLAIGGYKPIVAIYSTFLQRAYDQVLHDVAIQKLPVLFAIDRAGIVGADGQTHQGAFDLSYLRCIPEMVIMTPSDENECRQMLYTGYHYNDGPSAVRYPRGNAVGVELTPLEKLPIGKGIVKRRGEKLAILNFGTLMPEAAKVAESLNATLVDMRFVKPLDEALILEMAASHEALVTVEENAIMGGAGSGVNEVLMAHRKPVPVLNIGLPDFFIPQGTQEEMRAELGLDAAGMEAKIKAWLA

[3] = pH 8
DXP synthase [4] = molecular target: T1, DXP synthase; experiment: DXP synthase inhibitory activity in the presence of BME or ascorbic acid; type: biochemical, E. coli; conditions: inhibitor 50 µM
DXP synthase [5] = molecular target: T1, DXP synthase; experiment: Rapid dilution experiment; type: biochemical, E. coli; conditions: pre-incubation 15 or 30 min
[6] = 13C NMR monitoring of oxime 8 at pH 8; type: physicochemical; conditions: pH 8, 24 hours
[7] = Stability of inhibitors under the assay conditions; conditions: HEPES pH 8.0, 37 °C, HPLC analysis, data not shown

SMILES: CCCCOP(=O)(O)C(C)=O [Butyl Acetyl Phosphonate]
- Ki (DXP synthase [1]): 5.6 ± 0.8 µM

SMILES: O=C([O-])/C=N/OCCO/N=C/c1cc(O)c(O)cc1O.[Na+] [Compound 4, Sodium (1E,7E)-1-(2,4,5-trihydroxyphenyl)-3,6-dioxa-2,7-diazanona-1,7-dien-9-oate]
- mode of inhibition with respect to D-GAP (DXP synthase [2]): competitive
- mode of inhibition with respect to pyruvate (DXP synthase [2]): noncompetitive

SMILES: Oc1cc(O)c(/C=N/OCCO/N=C/c2cc(O)c(O)cc2O)cc1O [Compound 5, (1E,1'E)-O,O'-(Ethane-1,2-diyl)bis(1-(2,4,5-trihydroxyphenyl)-2,4,5-trihydroxybenzaldehyde oxime)]
- mode of inhibition with respect to D-GAP (DXP synthase [2]): competitive
- mode of inhibition with respect to pyruvate (DXP synthase [2]): uncompetitive

- stability under the conditions of the assay [3]: unstable
SMILES: O=Cc1cc(O)c(O)cc1O [Compound 6, 2,4,5-trihydroxybenzaldehyde]

SMILES: O/N=C/c1cc(O)c(O)cc1O [Compound 7, (E)-2,4,5-Trihydroxybenzaldehyde oxime]
- mode of inhibition with respect to D-GAP (DXP synthase [2]): competitive
- mode of inhibition with respect to pyruvate (DXP synthase [2]): uncompetitive

SMILES: CO/N=C/c1cc(O)c(O)cc1O [Compound 8, (E)-2,4,5-Trihydroxybenzaldehyde O-methyl oxime]
- inhibitory activity in the presence of BME (DXP synthase [4]; BME 0.5 mM): abolished; also recorded: abolishes inhibitory activity
- inhibitory activity in the presence of ascorbic acid (DXP synthase [4]; ascorbic acid 2.0 mM): does not abolish inhibitory activity
- mode of inhibition with respect to pyruvate (DXP synthase [2]): noncompetitive
- time dependence of inhibitory activity (DXP synthase [5]): not time-dependent
- quinone species observed by 13C NMR [6]: no observable quinone species

SMILES: Oc1cc(O)c(/C=N/OCc2ccccc2)cc1O [Compound 9, (E)-2,4,5-Trihydroxybenzaldehyde O-benzyl oxime]
- mode of inhibition with respect to pyruvate (DXP synthase [2]): noncompetitive

SMILES: CONCc1cc(O)c(O)cc1O.Cl [Compound 10, 5-((Methoxyamino)methyl)benzene-1,2,4-triol hydrochloride]
- Ki (DXP synthase [2]; evaluated in the presence of ascorbic acid (2.0 mM)): > 75 µM
- stability under the conditions of the assay [7]: unstable

SMILES: CN/N=C/c1cc(O)c(O)cc1O [Compound 11, (E)-5-((2-Methylhydrazono)methyl)benzene-1,2,4-triol]
- stability under the conditions of the assay [7]: unstable

SMILES: CO/N=C/c1cc(O)c(O)c(O)c1 [Compound 17, (E)-3,4,5-Trihydroxybenzaldehyde O-methyl oxime]
- mode of inhibition with respect to D-GAP (DXP synthase [2]): competitive

SMILES: CO/N=C/c1cc(O)c(O)c(OC)c1 [Compound 18, (E)-3,4-Dihydroxy-5-methoxybenzaldehyde O-methyl oxime]
- inhibition at 200 µM (DXP synthase [2]): 18%

SMILES: CO/N=C/c1cccc([N+](=O)[O-])c1O [Compound 21, (E)-2-Hydroxy-3-nitrobenzaldehyde O-methyl oxime]
- Ki (DXP synthase [2]): 47.8 ± 8.4 µM
- mode of inhibition with respect to D-GAP (DXP synthase [2]): competitive

SMILES: CO/N=C/c1cc(O)c(O)cc1F [Compound 22, (E)-2-Fluoro-4,5-dihydroxybenzaldehyde O-methyl oxime]
- mode of inhibition with respect to D-GAP (DXP synthase [2]): competitive
- stability under the conditions of the assay [3]: unstable

SMILES: CO/N=C/c1cc(F)c(F)cc1O [Compound 23, (E)-4,5-Difluoro-2-hydroxybenzaldehyde O-methyl oxime]
- inhibitory activity (DXP synthase [2]; up to 100 µM): minimally active

SMILES: CC1(C)C(=O)ON(Cc2ccccc2Cl)C1=O [Ketoclomazone]
- Ki (DXP synthase [1]): 75 µM
- mode of inhibition against D-GAP (DXP synthase [1]): noncompetitive
- mode of inhibition with respect to pyruvate (DXP synthase [1]): uncompetitive
